{"source": "patent EP0069448A1", "about": "“Fungicidal amide derivatives” (IMPERIAL CHEMICAL INDUSTRIES PLC, priority 1981, dated 1983)", "format_in_all_cases": "in vivo", "key": {"[1]": {"test_system": "Candida albicans and Trichophyton mentagrophytes var. quinkeanum", "assay": "Oral antifungal test in oestradiol-treated female mice inoculated vaginally and on the back", "conditions": "168 h, oral dosing twice on day 0 and once daily on days 1-4, skin lesions scored and vaginal samples cultured on day 7, read-out: minimum effective dose (MED)", "procedure": "The following Monday (day 0) they are clipped on the back and then dosed orally with test compounds. They are then inoculated with Candida albicans in the vagina and Trichophyton mentagrophytes var. quinkeanum on the back, and then given a second dose of the same compound. Dosing is repeated once daily on days 1-4. On day 7 skin lesions are scored visually and vaginal samples taken for culture on agar. Groups of 5 mice are used and compounds are dosed initially at a level of 250mg./kg. The dose is then reduced sequentially until a minimum effective dose (MED) is found. The MED for 2,2-bis(4-chlorophenyl)-3-(1,2,4-triazol-1-yl)propionamide in this test was 5mg. per kg."}, "[2]": {"test_system": "VENTURIA INAEQUALIS (APPLE)", "assay": "Foliar fungal disease test on plants (spray and root drench)", "conditions": "100 ppm active ingredient; Venturia inaequalis named as an exception to the combined spray and soil application; applied one or two days before inoculation", "procedure": "(§1) The compound of Example 1 was tested against a variety of foliar fungal diseases of plants. The technique employed was as follows:- The plants were grown in John Innes Potting Compost (No. 1 or 2) in 4 cm diameter minipots. A layer of fine sand was placed at the bottom of the pots containing the dicotyledonous plants to facilitate uptake of test compound by the roots. The test compound was formulated either by bead milling with aqueous Dispersol T or as a solution of acetone or acetone/ethanol which was diluted to the required concentration immediately before use. For the foliage diseases, suspensions (100 ppm active ingredient) were sprayed on to the […]. Exceptions to this were the tests on Botrytis cinerea, Plasmopara viticola and venturia inaequalis. The sprays were applied to maximum retention and the root drenches to a final concentration equivalent to approximately 40 ppm a.i./dry soil. Tween 20, to give a final concentration of 0.05%, was added when the sprays were applied to cereals. For most of the tests the compound was applied to the soil (roots) and the foliage (by spraying) one or two days before the plant was inoculated with the diseases. An exception was the test on Erysiphe graminis in which the plants were inoculated 24 hours before treatment. After inoculation, the plants were put into an appropriate environment to allow infection to take place and The disease control was recorded by the following grading:- [table]"}, "[3]": {"test_system": "ERYSIPHE GRAMINIS (BARLEY)", "assay": "Foliar fungal disease test on plants (spray and root drench)", "conditions": "100 ppm active ingredient spray, root drench approximately 40 ppm a.i./dry soil; plants inoculated 24 hours before treatment", "procedure": "as §1"}, "[4]": {"test_system": "CERCOSPORA ARACHIDICOLA (PEANUT)", "assay": "Foliar fungal disease test on plants (spray and root drench)", "conditions": "100 ppm active ingredient spray, root drench approximately 40 ppm a.i./dry soil; applied one or two days before inoculation", "procedure": "as §1"}, "[5]": {"test_system": "PUCCINIA RECONDITA (WHEAT)", "assay": "Foliar fungal disease test on plants (spray and root drench)", "conditions": "100 ppm active ingredient spray, root drench approximately 40 ppm a.i./dry soil; applied one or two days before inoculation", "procedure": "as §1"}}, "data": [{"smiles": "NC(=O)C(Cn1cncn1)(c1ccc(Cl)cc1)c1ccc(Cl)cc1", "note": "[Example 1, 2,2-bis(4-chlorophenyl)-3-(1,2,4-triazol-1-yl)propionamide]", "values": [{"measurement": "minimal effective dose", "setting": "[1]", "value": 5, "unit": "mg/kg"}, {"measurement": "disease control grading, VENTURIA INAEQUALIS (APPLE)", "setting": "[2]", "value": 3}, {"measurement": "disease control grading, ERYSIPHE GRAMINIS (BARLEY)", "setting": "[3]", "value": 4}, {"measurement": "disease control grading, CERCOSPORA ARACHIDICOLA (PEANUT)", "setting": "[4]", "value": 2}, {"measurement": "disease control grading, PUCCINIA RECONDITA (WHEAT)", "setting": "[5]", "value": 1}]}]}
